The values that follow come from patent US9790169B2, “IDO inhibitors” (BRISTOL-MYERS SQUIBB COMPANY, priority 2015, dated 2017).

In the assay the target is human IDO1 (Homo sapiens, UniProt P14902). In words: Assessment of human IDO-1 inhibitory activity in HEK cells (human IDO1/HEK293 cells, kynurenine read-out with Ehrlich reagent, absorbance 490 nm). The format is cell-based. Details: expressed in transfected cells. As to conditions: HEK Human IDO-1 cellular assay. The protocol:
Exemplary compounds were tested for inhibition of IDO activity.
Assessment of Human IDO-1 Inhibitory Activity in HEK Cells
HEK293 cells were transfected with a pCDNA-based mammalian expression vector harboring human IDO1 cDNA (NM 002164.2) by electroporation. They were cultured in medium (DMEM with 10% FBS) containing 1 mg/ml G418 for two weeks. Clones of HEK293 cells that stably expressed human IDO1 protein were selected and expanded for IDO inhibition assay.
The human IDO1/HEK293 cells were seeded at 10,000 cells per 50 μL per well with RPMI/phenol red free media contains 10% FBS in a 384-well black wall clear bottom tissue culture plate (Matrix Technologies LLC) 100 nL of certain concentration of compound was then added to each well using ECHO liquid handling systems. The cells were incubated for 20 hours in 37° C. incubator with 5% CO2.
The compound treatments were stopped by adding trichloroacetic acid (Sigma-Aldrich) to a final concentration at 0.2%. The cell plate was further incubated at 50° C. for 30 minute. The equal volume supernatant (20 μL) and 0.2% (w/v) Ehrlich reagent (4-dimethylaminobenzaldehyde, Sigma-Aldrich) in glacial acetic acid were mixed in a new clear bottom 384-well plate. This plate was then incubated at room temperature for 30 minute. The absorbance at 490 nm was measured on Envision plate reader.
Compound IC50 values were calculated using the counts of 500 nM of a reference standard treatment as one hundred percent inhibition, and counts of no compound but DMSO treatment as zero percent inhibition.

Some results are limits rather than exact numbers.

Sequence of human IDO1 (P14902 whole entry): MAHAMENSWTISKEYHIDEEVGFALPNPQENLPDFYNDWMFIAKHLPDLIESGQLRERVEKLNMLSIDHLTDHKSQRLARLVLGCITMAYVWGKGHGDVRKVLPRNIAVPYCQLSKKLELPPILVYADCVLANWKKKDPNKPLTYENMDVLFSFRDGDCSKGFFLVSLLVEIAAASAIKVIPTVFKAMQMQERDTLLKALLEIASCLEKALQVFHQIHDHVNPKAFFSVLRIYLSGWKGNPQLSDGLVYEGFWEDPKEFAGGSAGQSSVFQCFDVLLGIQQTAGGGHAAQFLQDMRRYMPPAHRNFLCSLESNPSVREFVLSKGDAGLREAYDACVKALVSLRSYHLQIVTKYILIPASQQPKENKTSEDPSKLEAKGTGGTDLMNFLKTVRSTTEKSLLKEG

As to `CC(C)CN(c1ccc(C(COCC2CC2(F)F)CC(=O)O)cc1NC(=O)Nc1ccc(Cl)cc1F)C1CCCCC1` (racemic) [Example 1002, (+/−)-3-(3-(3-(4-Chloro-2-fluorophenyl)ureido)-4-(cyclohexyl(isobutyl)amino)phenyl)-4-((2,2-difluorocyclopropyl)methoxy)butanoic acid], the IC50 is under 50 nM.
`COCCC(CC(=O)O)c1ccc(N(CC(C)C)C2CCCCC2)c(NC(=O)Nc2ccc(C)cc2)c1` (racemic) [Example 1003, (+/−)-3-(4-(Cyclohexyl(isobutyl)amino)-3-(3-(p-tolyl)ureido)phenyl)-5-methoxypentanoic acid]: the IC50 was under 5 nM.
For the compound `COCC(CC(=O)OC)c1ccc(N(CC(C)C)C2CCC(OC)CC2)c(NC(=O)Nc2ccc(C)cc2)c1` (racemic) [Example 1005, (+/−)-Methyl 3-(4-(isobutyl((1R,4R)-4-methoxycyclohexyl)amino)-3-(3-(p-tolyl)ureido)phenyl)-4-methoxybutanoate], the IC50 is over 50 nM.
The same measure for `CC(C)CN(CC(C)C)c1ccc(C(CC(=O)O)c2ccccc2)cc1NC(=O)Nc1ccc(OC(F)(F)F)cc1` (racemic) [Example 1009, (+/−)3-(4-(Diisobutylamino)-3-(3-(4-(trifluoromethoxy)phenyl)ureido)phenyl)-3-phenylpropanoic acid]: over 50 nM; for `Cc1ccc(CC(=O)Nc2cc(C(CC(=O)O)C(C)C)ccc2N(CC(C)C)CC(C)C)cc1` (racemic) [Example 1010]: under 5 nM; for `COC(Cc1ccc(N(CC(C)C)C2CCCCC2)c(NC(=O)Nc2ccc(C#N)cc2F)c1)C(=O)O` (racemic) [Example 1011, 3-(3-(3-(4-Cyano-2-fluorophenyl)ureido)-4-(cyclohexyl(isobutyl)amino)phenyl)-2-methoxypropanoic acid]: under 50 nM.
Regarding `CCOc1ccc(C(=O)Nc2cc(C(CC)CC(=O)O)ccc2N(CC(C)C)C2CCCCC2)cc1` (racemic) [Example 1073, 3-(4-(Cyclohexyl(isobutyl)amino)-3-(4-ethoxybenzamido)phenyl)pentanoic acid], the half-inhibitory concentration (IC50) was over 50 nM.
Regarding `CCC(CC(=O)O)c1ccc(N(CC(C)C)C2CCCCC2)c(NC(=O)c2ccc(Oc3ccccc3)cc2)c1` (racemic) [Example 1074, 3-(4-(Cyclohexyl(isobutyl)amino)-3-(4-phenoxybenzamido)phenyl)pentanoic acid], the 50% inhibitory concentration (IC50) was over 50 nM.
Consider `CCC(CC(=O)O)c1ccc(N(CC(C)C)C2CCCCC2)c(NC(=O)C(F)(F)c2ccc(C)cc2)c1` (racemic) [Example 1075, 3-(4-(Cyclohexyl(isobutyl)amino)-3-(2,2-difluoro-2-(p-tolyl)acetamido)phenyl)pentanoic acid], for which the half-inhibitory concentration (IC50) was over 50 nM.
For `CCC(CC(=O)O)c1cc(F)c(N(CC(C)C)CC(C)C)c(NC(=O)Cc2ccc(F)cc2F)c1` (racemic) [Example 1082], the IC50 was under 5 nM.
Turning to `CCC(CC(=O)O)c1cc(F)c(N(CC(C)C)CC(C)C)c(NC(=O)Cc2ccc(C)cc2F)c1` (racemic) [Example 1083], the IC50 was under 5 nM.
As for `CCC(CC(=O)O)c1ccc(N(CC(C)C)C2CCCCC2)c(NC(=O)Cc2ccc(Cl)cc2F)c1` (racemic) [Example 1085], the IC50 is under 5 nM.
In the case of `CCC(CC(=O)O)c1ccc(N(CC(C)C)C2CCCCC2)c(NC(=O)Cc2cc(F)ccc2F)c1` (racemic) [Example 1087], the concentration for half-maximal inhibition (IC50) is under 5 nM.
On to `CCC(CC(=O)O)c1ccc(N(CCC(C)C)C2CCCCC2)c(NC(=O)Cc2ccc(Cl)cc2F)c1` (racemic) [Example 1088], for which the concentration for half-maximal inhibition (IC50) was under 50 nM.
On to `CCC(CC(=O)O)c1cc(NC(=O)Nc2ccc3c(c2)OCO3)c(N(CC(C)C)C2CCCCC2)cc1F` (racemic) [Example 1110, (±)-3-(5-(3-(Benzo[d][1,3]dioxol-5-yl)ureido)-4-(cyclohexyl(isobutyl)amino)-2-fluorophenyl)pentanoic acid], for which the 50% inhibitory concentration (IC50) is under 5 nM.
In the case of `CCC(CC(=O)O)c1cc(NC(=O)Nc2cc(C)no2)c(N(CC(C)C)C2CCCCC2)cc1F` (racemic) [Example 1113, (±)-3-(4-(Cyclohexyl(isobutyl)amino)-2-fluoro-5-(3-(3-methylisoxazol-5-yl)ureido)phenyl)pentanoic acid], the IC50 is under 5 nM.
The same measure for `CCOc1ccc(NC(=O)Nc2cc(C(CC)CC(=O)O)c(F)cc2N(CC(C)C)C2CCCCC2)c(F)c1` (racemic) [Example 1116, (±)-3-(4-(Cyclohexyl(isobutyl)amino)-5-(3-(4-ethoxy-2-fluorophenyl)ureido)-2-fluorophenyl)pentanoic acid]: under 5 nM; for `CCC(CC(=O)O)c1cc(NC(=O)Nc2ccc(C)cc2F)c(N(CC(C)C)C2CCCCC2)cc1F` (racemic) [Example 1119, (±)-3-(4-(Cyclohexyl(isobutyl)amino)-2-fluoro-5-(3-(2-fluoro-4-methylphenyl)ureido)phenyl)pentanoic acid]: under 5 nM; for `CCC(CC(=O)O)c1cc(NC(=O)Nc2cncnc2)c(N(CC(C)C)C2CCCCC2)cc1F` (racemic) [Example 1122, (±)-3-(4-(cyclohexyl(isobutyl)amino)-2-fluoro-5-(3-(pyrimidin-5-yl)ureido)phenyl)pentanoic acid]: under 5 nM.
Take `CCC(CC(=O)O)c1cc(NC(=O)Nc2cnc(C)nc2)c(N(CC(C)C)C2CCCCC2)cc1F` (racemic) [Example 1125, (±)-3-(4-(Cyclohexyl(isobutyl)amino)-2-fluoro-5-(3-(2-methylpyrimidin-5-yl)ureido)phenyl)pentanoic acid]: the 50% inhibitory concentration (IC50) is under 5 nM.
As for `CCC(CC(=O)O)c1cc(NC(=O)Nc2ccc(C)cc2)c(N(CC(C)C)CC(C)C)cc1F` (racemic) [Example 1128, (±)-3-(4-(Diisobutylamino)-2-fluoro-5-(3-(p-tolyl)ureido)phenyl)pentanoic acid], the IC50 is under 5 nM.
As to `CCOc1ccc(NC(=O)Nc2cc(C(CC)CC(=O)O)c(F)cc2N(CC(C)C)CC(C)C)cc1` (racemic) [Example 1131, (±)-3-(4-(Diisobutylamino)-5-(3-(4-ethoxyphenyl)ureido)-2-fluorophenyl)pentanoic acid], the IC50 is under 5 nM.
For the compound `CCC(CC(=O)O)c1cc(NC(=O)Nc2ccc3c(c2)OCO3)c(N(CC(C)C)CC(C)C)cc1F` (racemic) [Example 1134, (±)-3-(5-(3-(Benzo[d][1,3]dioxol-5-yl)ureido)-4-(diisobutylamino)-2-fluorophenyl)pentanoic acid], the half-maximal inhibitory concentration (IC50) was under 5 nM.
In the case of `CCOc1ccc(NC(=O)Nc2cc(C(CC)CC(=O)O)c(F)cc2N(CC(C)C)CC(C)C)c(F)c1` (racemic) [Example 1137, (±)-3-(4-(Diisobutylamino)-5-(3-(4-ethoxy-2-fluorophenyl)ureido)-2-fluorophenyl)pentanoic acid], the IC50 is under 5 nM.
For `CCC(CC(=O)O)c1cc(NC(=O)Nc2cnc(OC)nc2)c(N(CC(C)C)CC(C)C)cc1F` (racemic) [Example 1140, (±)-3-(4-(Diisobutylamino)-2-fluoro-5-(3-(2-methoxypyrimidin-5-yl)ureido)phenyl)pentanoic acid] the value was under 5 nM.
On to `CCC(CC(=O)O)c1ccc(N2CCC[C@@H]2COC)c(NC(=O)Cc2ccc(C)cc2)c1` (mixture of isomers) [Example 1143, (±)-3-(4-((R)-2-(Methoxymethyl)pyrrolidin-1-yl)-3-(2-(p-tolyl)acetamido)phenyl)pentanoic acid], for which the IC50 was over 50 nM.
For `CC(C)CN(c1ccc(C(CC(=O)O)C2CC2)cc1NC(=O)Nc1ccc(Cl)cc1F)C1CCOCC1` (racemic) [Example 1198, (+/−)-3-(3-(3-(4-Chloro-2-fluorophenyl)ureido)-4-(isobutyl(tetrahydro-2H-pyran-4-yl)amino)phenyl)-3-cyclopropylpropanoic acid] the value was under 5 nM.
Regarding `Cc1cc(NC(=O)Nc2cc(C(CC(=O)O)C3CC3)ccc2N(CC(C)C)C2CCOCC2)no1` (racemic) [Example 1200, (+/−)-3-Cyclopropyl-3-(4-(isobutyl(tetrahydro-2H-pyran-4-yl)amino)-3-(3-(5-methylisoxazol-3-yl)ureido)phenyl)propanoic acid], the IC50 was under 50 nM.
As for `Cc1ccc(NC(=O)Nc2cc(C(CC(=O)O)C3CC3)ccc2N(CC(C)C)C2CCOCC2)cc1` (racemic) [Example 1202, (+/−)-3-Cyclopropyl-3-(4-(isobutyl(tetrahydro-2H-pyran-4-yl)amino)-3-(3-(p-tolyl)ureido)phenyl)propanoic acid], the half-maximal inhibitory concentration (IC50) is under 5 nM.
On to `CCOc1ccc(NC(=O)Nc2cc(C(CC(=O)O)C3CC3)ccc2N(CC(C)C)C2CCOCC2)cc1` (racemic) [Example 1204, (+/−)-3-Cyclopropyl-3-(3-(3-(4-ethoxyphenyl)ureido)-4-(isobutyl(tetrahydro-2H-pyran-4-yl)amino)phenyl)propanoic acid], for which the half-inhibitory concentration (IC50) is under 50 nM.
For `CC(C)CN(c1ccc(C(CC(=O)O)C2CC2)cc1NC(=O)Nc1cncnc1)C1CCOCC1` (racemic) [Example 1206, (+/−)-3-Cyclopropyl-3-(4-(isobutyl(tetrahydro-2H-pyran-4-yl)amino)-3-(3-(pyrimidin-5-yl)ureido)phenyl)propanoic acid], the IC50 was over 50 nM.

In general, IC50 refers to the concentration needed to halve the response being measured.
